Results taken from patent US20020094524A1, “Compositions and methods for inhibiting HIV infection” (priority 2000, published 2002).

What was measured:
ADA Env-pseudotyped HIV = test: Pseudotype reporter virus entry assay, ADA Env; format: cell-based
Experimental: (§1) Pseudotype reporter virus entry assay: Recombinant luciferase-encoding HIV virions pseudotyped with Env from the M-tropic ADA (CCR5-dependent) and amphitropic murine leukemia virus (MLV) (CCR5-independent) were used to study HIV infection of MDM incubated with or without CP-96,345 or R-113281. The Env-deleted luciferase reporter plasmid PNL-Luc-E-R+ (kindly provided by N. Landau) was cotransfected into 293T cells along with plasmids encoding the ADA or MLV Env genes as previously described (31). Supernatants were collected 48 h later, assayed for p24^Gag antigen content, and frozen at −80° C. MDM (2.5×10^5 cells/well, in 48-well plates) were incubated overnight with or without CP-96,345 or R-113281 and then infected using 20 ng of p24^Gag antigen equivalent of each pseudotype HIV per well, in the presence of polybrene (7.5 μg/ml). At 72 h postinfection, the cells were lysed in 150 μl of 0.5% Triton-X-100 in PBS. Lysate (50 μl) was mixed with an equal volume of luciferase substrate (Promega, […].) and luciferase activity was determined in a microtiter plate luminometer (Dynex Technologies, Chantilly, Va.). The results were expressed as relative light units (RLU) in CP-96,345-treated or R-113281-treated and infected MDM as a percentage of that in untreated and infected MDM.

[1] = test system: R5 strains (Bal, ADA, CSF-6 and BL-6); test: HIV RT activity in MDM infected with R5 strains; format: cell-based
Experimental: (§2) Based upon their differential use of the major HIV co-receptors, HIV isolates have been referred to as R5, X4 or R5X4 strains, respectively (29). The M-tropic (macrophage-tropic) R5 prototype strains (Bal and ADA), dual tropic strain (89.6) and X4 primary isolate (UG024), were obtained from the NIH AIDS Reagent Program. Primary M-tropic isolates (BL-6 and CSF-6) were isolated from the blood and cerebrospinal fluid cells, respectively, of a subject with AIDS.
(§3) The cells were also incubated with SP and/or anti-SP antibody. In this case, SP was incubated with (1:1000 dilution in 10% FCS DMEM) or without anti-SP antibody at room temperature for 10 min and then the mixture was added to the cell cultures for 2 h. When the cells were treated with the combination of CP-96,345 and SP, or CP-96,345, SP and anti-SP antibody, CP-96,345 was incubated with the cell culture for 10 min and then SP was added to the MDM or CP-96,345, SP and anti-SP (1:1000 in 10% FCS DMEM) were incubated for 10 min at room temperature and the mixture was incubated with the MDM for 2 h before infection with HIV. Untreated MDM served as controls. The cells were treated prior to, during, and throughout the infection. […]

CCR5 = test: Macrophage receptor expression by flow cytometry; format: cell-based, human
Experimental: The cells were removed from the culture plate and then resuspended in 100 μl of phosphate-buffered saline (PBS). After incubation with 20 μl of either anti-CCR5-FITC or anti-CXCR4-FITC or anti-CD4-FITC or anti-CD14-FITC for 45 min at 4° C., the cells were washed twice with PBS and fixed with 1% paraformaldehyde in PBS. Fluorescein-conjugated control antibodies were isotype-matched IgG. Fluorescence was analyzed on an EPICS-Elite flow cytometer (Beckman-Coulter Electronics, Hialeah, Fla.).

X4 strain (UG024) = test: HIV RT activity in MDM infected with X4 strain; format: cell-based
Experimental: as §2, §3

MLV Env-pseudotyped HIV = test: Pseudotype reporter virus entry assay, MLV Env; format: cell-based, murine leukemia virus
Experimental: as §1

CCR5 mRNA = CCR5 mRNA expression in MDM (RT-PCR); format: cell-based, human; conditions: for relative CCR5 mRNA level (real-time RT-PCR): CP-96,345 10^−7 to 10^−6 M or R-113281 10^−8 to 10^−6 M, 4 hours (FIG. 15A)
Experimental: Total RNA was isolated from human peripheral blood MDM (10^6 cells) using Tri-Reagent (Molecular Research Center, Cincinnati, Ohio) as we previously reported (16).
Reverse transcription: Total RNA (1 μg) was reverse transcribed using Reverse Transcription System (Promega, Madison, Wis.) with the specific primers (antisense) for HIV gag (5′-[…]-[…]-3′; SEQ ID NO: 1) (27) or CCR5 (5′-[…]-3′; SEQ ID NO: 2) (32) for 1 h at 42° C. RT reactions was terminated by incubating the reaction mixture at 99° C. for 5 min and then kept at 4° C. The resulting cDNA was used as a template for PCR amplification or real time PCR quantification.
Polymerase chain reaction (PCR) analysis: PCR amplification of CCR5 and HIV gag cDNA was performed with one tenth of the cDNA for 35 cycles (CCR5) (32) or 40 cycles (gag) (27) using AmpliTaq Gold (Perkin Elmer-Cetus, Foster City, Calif.) in a GeneAmp PCR System 2400 (Perkin Elmer-Cetus). β-Actin was used as a control to monitor the amount and integrity of RNA in each sample (Clontech, Palo Alto, Calif.). Real time PCR was performed with one tenth of cDNA using ABI Prism 7700 Sequence Detection System (Perkin Elmer). The reaction mixture contained 0.25 mM of dNTPs, AmpliTaq Gold (1.5 U), 5 mM of MgCl2, 50 pmole of each of the two primers (SK38: 5′-[…]-3′ (SEQ ID NO: 3); SK39: 5+-[…]-3′; SEQ ID NO: 4), 20 pmole of the molecular beacon probe (SK19: 5′-[…]-3′; SEQ ID NO: 5) labeled with FAM (a fluorophore) at its 5′ end and DABCYL (a quencher) at the 3′ end. The cycle conditions were 95° C. 10 min followed by 40 cycles of 95° C. 15 sec and 60° C. 1 min. The known amounts of HIV DNA isolated from ACH-2 cells were used as standard controls. All standards and samples were run in duplicates. HIV gag, CCR5, β-Actin primer pairs and the probe (SK19) were synthesized by Integrated DNA Technologies, Inc. (Coralville, Iowa).

[2] = CP-96,345 10^−8 and 10^−7M overnight (FIG. 10)
[3] = CP-96,345 10^−7M, 8 days after infection (FIG. 6)
[4] = R-113281 10^−7 and 10^−6 overnight (FIG. 13)
[5] = R-113281 10^−6 M, 8 days after infection (FIG. 14)

Row | Structure (SMILES) | M-tropic ADA Env-pseudotyped HIV infection of MDM (luciferase activity) (ADA Env-pseudotyped HIV; [2]) | replication of R5 strains (RT activity) [1, 3] | CCR5 receptor expression on MDM (percentage positive cells) (CCR5; overnight/24 h, among CD4, CCR5, CXCR4 and CD14 only CCR5 changed (FIG. 8)) | replication of X4 strain UG024 (RT activity) (X4 strain (UG024); [3]) | MLV Env-pseudotyped HIV infection of MDM (luciferase activity) (MLV Env-pseudotyped HIV; [2]) | CCR5 mRNA in MDM (RT-PCR) (CCR5 mRNA; 10^−8 to 10^−6M, 3 h (FIG. 9)) | relative CCR5 mRNA level (real-time RT-PCR) (CCR5 mRNA) | M-tropic ADA Env-pseudotyped HIV infection of MDM (luciferase activity) (ADA Env-pseudotyped HIV; [4]) | replication of R5 strains (RT activity) [1, 5] | CCR5 protein expression (percentage CCR5 positive cells, flow cytometry) (CCR5; R-113281 10^−6M, 24 hours (FIG. 15B)) | replication of X4 strain (RT activity) (X4 strain (UG024); [5]) | MLV-Env pseudotyped HIV infection of MDM (luciferase activity) (MLV Env-pseudotyped HIV; [4])
1 | COc1ccccc1CN[C@H]1C2CCN(CC2)[C@H]1C(c1ccccc1)c1ccccc1 [CP-96,345, 2S, 3S)-cis-2-(diphenylmethyl)-N-[(2-methoxyphenyl)-methyl]-1-azabicyclo[[2.2.2]octan-3-amine] | inhibited | inhibited | down-regulated | not affected | failed to block | down-regulated | significantly down-regulated |  |  |  |  | 
2 | COc1cc(C(=O)N2CCO[C@](CCN3CCC4(CC3)c3ccccc3C[S@+]4[O-])(c3ccc(Cl)c(Cl)c3)C2)cc(OC)c1OC.Cl [R-113281] |  |  |  |  |  |  | significantly down-regulated | inhibited | inhibited | inhibited | not affected | failed to block
